Assay results: PubChem BioAssay (NCI)
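These data come from cells grown in 96-well plates and exposed to compound for 48 hours at five concentrations. TGI: concentration producing complete growth inhibition.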

Legend:
Experiment in all cases: inhibition of tumour cell growth, NCI panel, 48 h
SNB-75 CNS = test system: SNB-75 CNS
SN12C renal = test system: SN12C renal
SF-295 CNS = test system: SF-295 CNS
DMS 114 small cell lung = test system: DMS 114 small cell lung
TK-10 renal = test system: TK-10 renal
CCRF-CEM leukemia = test system: CCRF-CEM leukemia
HCT-15 colon = test system: HCT-15 colon
DMS 273 small cell lung = test system: DMS 273 small cell lung
SNB-19 CNS = test system: SNB-19 CNS
HL-60(TB) leukemia = test system: HL-60(TB) leukemia
HCC-2998 colon = test system: HCC-2998 colon
MOLT-4 leukemia = test system: MOLT-4 leukemia
A498 renal = test system: A498 renal
HOP-62 NSCLC = test system: HOP-62 NSCLC
LXFL 529 NSCLC = test system: LXFL 529 NSCLC
NCI-H226 lung = test system: NCI-H226 lung
RPMI-8226 leukemia = test system: RPMI-8226 leukemia
SR leukemia = test system: SR leukemia
SK-MEL-28 melanoma = test system: SK-MEL-28 melanoma
OVCAR-4 ovarian = test system: OVCAR-4 ovarian
SNB-78 CNS = test system: SNB-78 CNS
DLD-1 colon = test system: DLD-1 colon
ACHN renal = test system: ACHN renal
HCT-116 colon = test system: HCT-116 colon
SW-620 colon = test system: SW-620 colon
NCI-H23 lung = test system: NCI-H23 lung
A549 NSCLC = test system: A549 NSCLC
786-0 renal = test system: 786-0 renal
NCI-H522 lung = test system: NCI-H522 lung
SK-MEL-5 melanoma = test system: SK-MEL-5 melanoma
KM20L2 colon = test system: KM20L2 colon
SF-268 CNS = test system: SF-268 CNS
UO-31 renal = test system: UO-31 renal
OVCAR-8 ovarian = test system: OVCAR-8 ovarian
COLO 205 colon = test system: COLO 205 colon
NCI-H460 lung = test system: NCI-H460 lung
OVCAR-3 ovarian = test system: OVCAR-3 ovarian
SK-MEL-2 melanoma = test system: SK-MEL-2 melanoma
SF-539 CNS = test system: SF-539 CNS
U251 CNS = test system: U251 CNS
UACC-62 melanoma = test system: UACC-62 melanoma
SK-OV-3 ovarian = test system: SK-OV-3 ovarian
CAKI-1 renal = test system: CAKI-1 renal
UACC-257 melanoma = test system: UACC-257 melanoma
K-562 leukemia = test system: K-562 leukemia
HOP-92 NSCLC = test system: HOP-92 NSCLC
HT29 colon = test system: HT29 colon
M19-MEL melanoma = test system: M19-MEL melanoma
KM12 colon = test system: KM12 colon
EKVX NSCLC = test system: EKVX NSCLC
LOX IMVI melanoma = test system: LOX IMVI melanoma
IGROV1 ovarian = test system: IGROV1 ovarian

Measured: TGI

CCCCCn1cnc2c1S(=O)(=O)N(C)C(NC(=O)c1ccccc1)=N2
> 100 µM: all assays above
